Where “and” joins values, the source holds several entries; their conditions need not be identical. Equal values may be shown once.
Experiments:
Japanese quails = assay: Inhibition of arteriosclerosis in Japanese quails fed 1% cholesterol feed; format: in vivo, Japanese quail; design: key to Atheroma formation in arcuate aorta, grade of individual birds: 0: no atheroma.; I: coated with atheroma at a ratio of 1 to 10% of the total area.; II: coated with atheroma at a ratio of 11 to 40% of the total area.; III: coated with atheroma at a ratio of 41 to 70% of the total area.; IV: coated with atheroma at a ratio of 71 to 100% of the total area; settings: 9 months; for Atheroma formation in arcuate aorta, grade of individual birds: individuals I-VIII; for decrease of serum cholesterol level / decrease of serum neutral fat level: vs high cholesterol feed control; for Serum neutral fat / Serum total cholesterol: Mean ± SE
Protocol: When fed with a high fat diet, birds also show the onset of arteriosclerosis within a short period of time. Then 32 adult Japanese quails aged about 30 days were divided into 4 groups at random. […] The feed was prepared by adding 1% of cholesterol to a powdery protein-rich standard fed for chick and molding the mixture into pellets. Compound-6 was added in an amount of 0.16% or 0.0025% to the powdery feed and then the mixture was molded into pellets. The experiment was carried out for 9 months. During this period, the birds were allowed to take the feed and drinking water ad libitum. The feed employed in this experiment contained less fat, compared with the feed employed in the experiments with white rabbits, and was free from bile acid promoting the absorption of cholesterol from the digestive tract.
After 9 months, blood was collected and the serum total cholesterol level and the neutral fat level were measured. […] Each bird was dissected and the aorta was taken out. Then the severity was scored in 5 grades based on the ratio of atheroma to the total endosporium area and thickening of the arterial wall.

[1] = test system: rats with adjuvant arthritis; assay: Therapeutic effect on rat adjuvant arthritis; format: in vivo; settings: for Inflammation score (5 grades, 1 normal to 5 disabled by swelling in both hind legs): 7 times, day 7
Protocol: Rats with arthritis employed in Experiment 1 were individuals which suffered from serious arthritis caused by the injection of an adjuvant 45 days ago and thus crawled on forelegs since they could not bend hind legs. Drug effects were evaluated by observing walking, observation with the naked eye of the severity of inflammation in hind legs and the volume of swelling in legs. To 19 SD male rats (weighing about 300 g), Freund's […] adjuvant containing dead tubercle bacillus Aoyama B strain was subcutaneously injected into the tail root to induce arthritis in hind legs. Compound-6 was suspended in a tragacanth gum solution and orally administered at a ratio of 0.5 ml/100 g body weight. Compound-6 was administered to 3 groups including the high-dose model (HM; 50 mg/kg), the medium-dose model (MM; 25 mg/kg) and the low-dose model (LM; 10 mg/kg). Administration was made once a day in morning continuously 7 times. During this period, the hind leg volume was measured at the initiation of the experiment and 2, 4 and 7 days thereafter. The volume change was calculated by referring the volume at the initiation of the experiment as to 100%. On the 7th day, the inflammation conditions in hind legs were evaluated in 5 grades with the naked eye.
Immediately after administration, the three Compound-6 groups were combined and divided again depending on the occurrence of arthritis (i.e., positive and negative groups). Then the data were compared with the data of the control group.

male Wistar rats = assay: Sterol balance and bile acid excretion in rats; format: in vivo, rat; settings: 10 mg/kg oral once a day
Protocol: Feed-origin cholesterol and neutral sterol and acidic sterol in the feces of rats, to which the compounds of the present invention had been administered, were determined to monitor sterol balance and changes in the bile acid composition in feces. […] Further, the bile was sampled with the passage of time from rats having been subjected to cholangiostomy and bile acids thereof were determined. […] Male Wistar rats weighting about 250 g were divided into groups each having 6 to 8 animals. […] […] The feces were collected on the days 6 and 10. Then sterols were extracted therefrom in a conventional manner, acidic sterols and neutral sterols were determined. On the other hand, cholesterol in the feed was also determined so as to calculate the amount of feed-origin sterol.

db/db mice = assay: Long-term oral administration to hereditary obese diabetic mice (pancreas function protecting effect); format: in vivo, mouse
From the text: It has been already supported by the results of several experiments that oral administration of the compounds of the present invention enhances peripheral insulin sensitivity and ameliorates metabolic disorders in db/db mice. It is, however, noteworthy that the compounds of the present invention exert an effect in retaining the function pancreatic synthesis of insulin over a long period, which is defective in diabetes. This effect was clearly indicated by serum insulin level and pathologic observation on pancreas of db/db mice to which Compound-14 had been administered over about 1 year. […] Moreover, Compound-14 ameliorated urinary protein throughout the experimental period. […] Namely, there arose a conversion of non insulin-dependent diabetes mellitus into insulin-dependent diabetes mellitus,analogous to human type II diabetes. Even body weight was reduced to a level similar to that of normal litter after the 40th week, the db/db mice lacking leptin receptor underwent overeating and food energy, which could not be anabolized due to the poverty of insulin, was excreted from the body in a large amount.
Since they lack hereditarily leptin […], db/db mice have no appetite control even at satiety. As a result, they suffer from hyperinsulinemia due to overeating and serious obesity, thereby undergoing the onset of diabetes. The compounds of the present invention were orally administered to db/db mice for 40 weeks (from 11 to 51 weeks after birth) (FIG. 2).
As obesity attained a maximum, insulin requirements exceeded insulin production levels. Thus, pancreatic Langerhans' islet β-cells having insulin depot granules therein were mostly degranulated and there arose insulin depot poverty. The pancreatic Langerhans' islet β-cells having been working severely to produce insulin in excess gradually fatigued. […] From 23rd week after birth, it became impossible to anabolize all of the food energy taken in excess due to the insufficient function of insulin, which induced a decrease in body weight. The food energy which could not be anabolized was excreted as urinary glucose. As a result, the urinary glucose increased with a decrease in the blood insulin level. […] Namely, there arose the conversion of noninsulin-dependent diabetes mellitus into insulin-dependent diabetes mellitus in clinical case of humans. […] However, Compound-14 has no function of restoring leptin receptor and thus exerts no effect on the process of the induction of obesity by hyperinsulinemia due to overeating.
Since pancreatic Langerhans' islet β-cells are of key importance in various aspects of diabetes, the ability of the compound of the present invention to maintain the function of these cells over a long period of time, is very important in terms of the treatment and prevention of diabetes.

[2] = three dose groups combined, total 14

COc1c(Cl)c(C)c(C=O)c(O)c1C/C=C(C)/C=C/[C@@]1(C)[C@H](C)CCC(=O)[C@@H]1C [Compound-6, 4-O-methylASC]
occurrence of atheroma (Japanese quails; High-dose group (0.16%)): no atheroma | Atheroma formation in arcuate aorta, grade of individual birds (Japanese quails; High-dose group (0.16%)): 0 | Atheroma severity score, Average (Japanese quails; High-dose group (0.16%), n = 8): 0.00 ± 0.00 | decrease of serum cholesterol level (Japanese quails; High-dose group): 40% | decrease of serum neutral fat level (Japanese quails; High-dose group): 40% | Serum neutral fat, change vs control (Japanese quails; High-dose, 0.16% in feed): −40.0% | Serum total cholesterol, change vs control (Japanese quails; High-dose, 0.16% in feed): −40.4% | Serum neutral fat (Japanese quails; High-dose, 0.16% in feed): 392.6 ± 46.5 mg/dL | Serum total cholesterol (Japanese quails; High-dose, 0.16% in feed): 1200 ± 136 mg/dL | fraction of the birds with atheroma (Japanese quails; Low-dose group (0.0025%)): ½ | Atheroma formation in arcuate aorta, grade of individual birds (Japanese quails; Low-dose group (0.0025%)): 0 (4×) and I (coated with atheroma at a ratio of 1 to 10% of the total area.) (4×) | decrease of serum cholesterol level (Japanese quails; Low-dose group): 25.5% | decrease of serum neutral fat level (Japanese quails; Low-dose group): 21.6% | Serum neutral fat, change vs control (Japanese quails; Low-dose, 0.0025% in feed): −21.6% | Serum total cholesterol, change vs control (Japanese quails; Low-dose, 0.0025% in feed): −25.5% | Serum neutral fat (Japanese quails; Low-dose, 0.0025% in feed): 513.1 ± 39.2 mg/dL | Serum total cholesterol (Japanese quails; Low-dose, 0.0025% in feed): 1499 ± 120 mg/dL | Inflammation score (5 grades, 1 normal to 5 disabled by swelling in both hind legs) ([1]; HM group, 50 mg/kg oral once a day): 2.2 | Inflammation score (5 grades, 1 normal to 5 disabled by swelling in both hind legs) ([1]; LM group, 10 mg/kg oral once a day): 3.2 | Inflammation score (5 grades, 1 normal to 5 disabled by swelling in both hind legs) ([1]; MM group, 25 mg/kg oral once a day): 2.8 | walking of rats disabled by swelling in joint ([1]; after 1 week of oral administration): could walk again | Arthritis (+), number of rats [1, 2]: 7 | Arthritis (−), number of rats [1, 2]: 7 | Serum total cholesterol (male Wistar rats; Standard feed): 65.0 ± 2.98 mg/dL | Sterol Excretion (male Wistar rats; Standard feed): 10.81 mg/200 g wt. | Sterol balance (male Wistar rats; Standard feed): -2.26 mg | Serum total cholesterol (male Wistar rats; feed containing cholesterol): 77.0 ± 2.19 mg/dL | Sterol Excretion (male Wistar rats; feed containing cholesterol): 275.52 mg/200 g wt. | Sterol balance (male Wistar rats; feed containing cholesterol): +25.93 mg

CC(/C=C/[C@@]1(C)[C@H](C)CCC(=O)[C@@H]1C)=C\Cc1c(O)c(C=O)c(C)c(Cl)c1OCC(=O)O [Compound-14, 4-O-carboxymethylASC]
urinary glucose compared with the control group (db/db mice; 0.1% in feed, oral, 40 weeks (11 to 51 weeks after birth)): scarcely excreted into urine and 1/100 | blood glucose level (db/db mice; 0.1% in feed, oral, about 40 weeks after birth): almost comparable to normal litter | function of pancreatic β-cells (insulin productivity) (db/db mice; long-term oral administration, about 1 year): completely sustained over 1 year | urinary protein (db/db mice; throughout the experimental period): ameliorated

— patent US6605639B1, “Ligands of nuclear receptor” (Nuclear Receptor Research, Ltd., priority 1998, dated 2003)
